Test system: mosquitoes
Assay: WHO cone test of treated, washed polyester nettings (knockdown, 24-hour mortality)
Type: in vivo
Settings: polyester nettings treated with insecticide composition comprising a binder of example A and the N-arylhydrazine derivative; after Montpellier washing; 3 min cone exposure
Procedure: The long-lasting insecticidal treatment was performed with aqueous dispersions according to examples A1-A17 on commercially available white polyester netting material (fiber titer 75 denier, 156 mesh, weight 28-32 g/m^2) without prior washing. The aqueous treatment baths were prepared by mixing the aqueous dispersions with emulsions of N-ethyl-2,2-dimethylpropionamide-2-(2,6-dichloro-α,α,α-trifluoro-p-tolyl)-hydrazone and N-ethyl-2,2-dichloro-1-methylcyclo-propanecarboxamide-2-(2,6-dichloro-α,α,α-tri-fluoro-p-tolyl)hydrazone, respectively, setting pH with buffer solutions and adding a fixative (if needed). The concentrations of the treatment baths were adjusted according to the liquor uptake possible (LU between 60 and 100%). The treatment baths were applied by using a padder-stenter equipment on a laboratory scale (Mathis AG, Switzerland). The netting material is fully immersed into the treatment bath and excess liquor is removed by passing it through cylinders which move in counter-direction. By choosing a defined distance between these cylinders (and thus a defined pressure) the liquor uptake can be controlled. The liquor uptake is measured by weighing an impregnated piece of netting and subtracting the weight of the dry, untreated netting and is given as % weight of liquor on weight of netting. […]

| SMILES | activity (knockdown, mortality) after washing of the nettings |
| --- | --- |
| CCN/C(=N\Nc1c(Cl)cc(C(F)(F)F)cc1Cl)C(C)(C)C [Ia-I, N-ethyl-2,2-dimethylpropionamide-2-(2,6-dichloro-α,α,α-trifluoro-p-tolyl)-hydrazone] | show an activity |
| CCN/C(=N\Nc1c(Cl)cc(C(F)(F)F)cc1Cl)C1(C)CC1(Cl)Cl (stereo not drawn) [Ia-II, N-Ethyl-2,2-dichloro-1-methylcyclo-propanecarboxamide-2-(2,6-dichloro-α,α,α-tri-fluoro-p-tolyl)hydrazone] | show an activity |
